Key:
[1] = test system: Caco-2 cell monolayer; assay: Caco-2 cell permeability assay; format: in vitro ADME, human
Method: The human colon adenocarcinoma cell line Caco-2 was obtained from the Russian Cell Culture Collection (Institute of Cytology, Russian Academy of Sciences, St. Petersburg, Russia). Caco-2 cells were cultured in DMEM medium supplemented with 10% FBS, L-glutamine, and penicillin/streptomycin in 75 cm^2 cell culture flasks (Jet Biofil, Guangzhou, China) at 37 °C in a humidified atmosphere containing 5% CO2 in a CO2 incubator. When the cells reached 60-70% confluence, the cells were sub-cultured into new flasks (1:6 ratio). […] Samples were collected from the bottom chamber and fluorescence intensity was measured using a fluorescence plate reader (excitation 492 nm; emission 520 nm). […] The content of vitamin B12 and the content of the HA-CT-B12 conjugate equivalent to vitamin B12 were determined spectrophotometrically at 360 nm using a calibration curve. […] The Papp was calculated using the following equation [33]:(1) […]0 where Papp is the apparent permeability coefficient (cm/s); dQ/dt -is the permeation rate (μg/s); A is the monolayer area (0.3 sm^2); and C0 is the concentration in the apical chamber at the initial moment of time (μg/mL).

[2] = test system: P. aeruginosa ATCC 27853; assay: Antimicrobial activity, microtiter broth dilution method; format: cell-based, Pseudomonas aeruginosa; conditions: 1 × 10^7 CFU/mL, Mueller–Hinton broth, 24 h at 37 °C, OD 630 nm, concentration equivalent to CT
Method: The antimicrobial activity of HA–CT–B12 was tested using the microtiter broth dilution method, as previously reported. P. aeruginosa ATCC 27853 (Museum of Microbiological Cultures, State Research Institute of Highly Pure Biopreparations, St. Petersburg, Russia) was used as the experimental microorganism. Briefly, HA–CT–B12 conjugate stock solutions were prepared by diluting samples in Mueller–Hinton broth to a maximum 2-fold concentration equivalent to CT. Serial dilutions of CT (64 to 0.25 μg/mL) were then plated on Luria-Bertani agar culture plates. The antimicrobial efficacy of the HA–CT–B12 conjugates was confirmed by the absence of P. aeruginosa growth. P. aeruginosa suspension was serially diluted 1:100 in Müller–Hinton broth to obtain a concentration of approximately 1 × 10^7 CFU/mL. Then, 125 µL of the inoculum was added to the wells of the culture plate containing HA–CT–B12 solutions in Müller–Hinton broth. […] The plate was incubated for 24 h at 37 °C and the optical density (OD) was measured at 630 nm using an ELx808™ Absorbance Microplate Reader (BioTek Instruments, Winooski, VT, USA). Relative bacterial growth (%) was calculated as the ratio of OD630 at each concentration of the test samples to OD630 in the control (0 μg/mL). […]

Substance	Apparent permeability coefficient (Papp) ([1]; Caco-2 monolayer, day 21, apical to basolateral, PBS, 2 h with sampling every 30 min, 1 mg CT, 28.5 mg vitamin B12 or 300 mg conjugate in 5 mL PBS, 0.5 mL applied, B12 and conjugate read at 360 nm, mean of n = 3)	Minimum inhibitory concentration (MIC) [2]	Apparent permeability coefficient (Papp) ([1]; Caco-2)
cyanocobalamin [vitamin B12]	5.4 ×10⁻⁶ cm/s		
colistin [CT]		2 µg/mL	0.04 ×10⁻⁶ cm/s
